From patent US20030215817A1, “Modulation of gene expression in formation of fatty atherosclerotic lesions” (priority 2003, published 2003)
Structures can show the parent of a compound that is named as a salt.

Assays:
[1] = test system: REC1_2 (MspI AATC 108) mRNA; experiment: quantified RT-PCR, Rec1_2; assay type: in vivo, rabbit; details: for Relative Abundance Rec1_2, 500 pg F: hypercholesterolemic plus lercanidipine racemate, eight weeks, H2 (normocholesterolemic)=1.0
Procedure: (§1) Nineteen of the isolated DST clones were further validated using RT-PCR analyses; the data are presented in FIGS. 6-24 and in Tables 5-23, below. For each DST examined, the optimal annealing temperature and reagent conditions were determined for the corresponding set of primers (see Table 25) based on results from a preliminary experiment. In eight separate reactions, each set of primers was assayed to find the optimal conditions by adjusting the following four parameters: primer concentration, dNTP concentration, MgCl2 concentration, and number of Taq polymerase units. Once optimal conditions were determined, each DST was run in duplicate multiple simultaneous reactions which usually included at least four dilutions of template (cDNA library), plus control reactions lacking template, and six sequential data points for numbers of cycles.
(§2) Reactions were performed using “Hot Start” PCR with the Clontech TaqStart antibody system (Cat. #5400-1). Each reaction contained 1 ml of the cDNA library dilution as template, determined amounts of AmpliTaq DNA polymerase (cat. #N808-0156), MgCl2, dNTPs (GibcoBRL cat. #10297-018), primer, and Clontech TaqStart Antibody in a 20 ml final reaction volume using 10×Taq buffer II (without MgCl2). Typically, a master mix containing all components except the template was prepared and aliquoted. Various templates were then added to these master mix samples and 20 ml volumes were subsequently dispensed into individual reaction tubes. At various times during the PCR run, tubes were removed sequentially on a predetermined schedule in order to quantitate expression of the target DST over a “window” of cycle times. After amplification, the samples were quantified via fluorimetry.
(§3) PCR was performed at annealing temperatures that were five degrees above the average melting temperature of each primer pair. For primers greater than 10 bases (in a 0.05M salt solution), melting temperature was calculated using the following formula: Tm=59.9+41[% GC]−[675/Primer Length], where %GC is the decimal value. Following determination of the average melting temperature of the primer pair, the annealing temperature was determined by adding five degrees to the average melting temperature. PCR was performed using the following program: 1) 95 degrees Celsius, 3 minutes; 2) 95 degrees Celsius, 30 seconds; 3) TM+5 degrees Celsius, 30 seconds; 4) 72 degrees Celsius, for a time dependent on target length at 16 bp/second; 5) repeat steps 2-4 33 more cycles; 6) 72 degrees Celsius, 3 minutes; 7) 14 degrees Celsius, forever.
(§4) Following temperature cycling, 2 ml of the PCR reaction was added to 140 ml of a 1:280 dilution of PicoGreen (Molecular Probes cat. #P-11495 (10×100 ml)) in TE pH 7.5 in a 96-well Costar UV microtiter plate (Fisher cat. #07-200623). The samples were mixed gently for 1.5 minutes and allowed to equilibrate at room temperature in the dark for 15 minutes. The concentration of the PCR products was quantified by fluorimetry using a PerSeptive Biosystems CytoFluor series 4000 multi-well plate reader.
(§5) Background fluorescence was determined by using duplicate control samples that were cycled with all reaction components except the template. The mean value from these duplicate background control samples was subtracted from the corresponding experimental values prior to analyzing results. The sensitivity of the PicoGreen dsDNA assay is reported to be 250 pg/ml (50 pg dsDNA in a […] assay volume) using a fluorescence microplate reader such as was used in these measurements. […]

Rec1_21 (TTCC 165) mRNA = experiment: quantified RT-PCR, Rec1_21; assay type: in vivo, rabbit; details: for Relative Abundance Rec1_21, 20 pg F: hypercholesterolemic plus lercanidipine racemate, eight weeks, H2 (normocholesterolemic)=1.0
Procedure: as §1, §2, §3, §4
(§6) Background fluorescence was determined by using duplicate control samples that were cycled with all reaction components except the template. The mean value from these duplicate background control samples was subtracted from the corresponding experimental values prior to analyzing results. The sensitivity of the PicoGreen dsDNA assay is reported to be 250 pg/ml (50 pg dsDNA in a […] assay volume) using a fluorescence microplate reader such as was used in these measurements.
FIG. 20 is a graphical representation of the results of RT-PCR using 20 pg of clone REC1—21 template, in which the amount of PCR product (measured in arbitrary fluorescence units) is plotted against number of cycles, where polyA enriched mRNA was extracted from aortas or rabbits that were normocholesterolemic (filled diamonds, “H2”) and hypercholestrolemic plus lercanidipine racemate, eight weeks (filled squares, “F”).

[2] = test system: REC1_18 (MspI TGGT 241) mRNA; experiment: quantified RT-PCR, Rec1_18; assay type: in vivo, rabbit; details: for Relative Abundance Rec1_18, 20 pg F: hypercholesterolemic plus lercanidipine racemate, eight weeks, H2 (normocholesterolemic)=1.0
Procedure: as §1, §2, §3, §4, §5

Rec1_24 (CCGG 232) mRNA = experiment: quantified RT-PCR, Rec1_24; assay type: in vivo, rabbit; details: for Relative Abundance Rec1_24, 100 pg D: hypercholesterolemic plus lercanidipine R (−), eight weeks, H2 (normocholesterolemic)=1.0
Procedure: as §1, §2, §3, §4, §6
FIG. 23 is a graphical representation of the results of RT-PCR using 100 pg of clone REC1—24 template, in which the amount of PCR product (measured in arbitrary fluorescence units) is plotted against number of cycles, where polyA enriched mRNA was extracted from aortas of rabbits that were normocholesterolemic (filled diamonds, “H2”) and hypercholesterolemic plus lercanidipine R (−), eight weeks (filled squares, “D”).

calcium channel = details: (R)-enantiomer compared with the other enantiomer of lercanidipine; cited from earlier work
Rec1_22 (TGGG 164) mRNA = experiment: quantified RT-PCR, Rec1_22; assay type: in vivo, rabbit; details: for Relative Abundance Rec1_22, 20 pg D: hypercholesterolemic plus lercanidipine R (−), eight weeks, H2 (normocholesterolemic)=1.0
Procedure: as §1, §2, §3, §4, §6
FIG. 22 is a graphical representation of the results of RT-PCR using 20 pg of clone REC1—22 template, in which the amount of PCR product (measured in arbitrary fluorescence units) is plotted against number of cycles, where polyA enriched mRNA was extracted from aortas of rabbits that were normocholesterolemic (filled diamonds, “H2”) and hypercholesterolemic plus lercanidipine R (−), eight weeks (filled squares, “D”).

[3] = hypercholesterolemic animals receiving lercanidipine racemate
[4] = hypercholesterolemic animals receiving lercanidipine R (−) compared to normocholesterolemic animals

## COC(=O)C1=C(C)NC(C)=C(C(=O)OC(C)(C)CN(C)CCC(c2ccccc2)c2ccccc2)C1c1cccc([N+](=O)[O-])c1 (racemic) [lercanidipine, lercanidipine hydrochloride]
[1]; cycle 22
  Relative Abundance Rec1_2, 500 pg F: 2.7
[1]; cycle 24
  Relative Abundance Rec1_2, 500 pg F: 0.6
[1]; cycle 26
  Relative Abundance Rec1_2, 500 pg F: 5.0
[1]; cycle 28
  Relative Abundance Rec1_2, 500 pg F: 6.6
[1]; cycle 30
  Relative Abundance Rec1_2, 500 pg F: 2.5
[1]; cycle 32
  Relative Abundance Rec1_2, 500 pg F: 1.6
[1]; [3]
  expression of Rec1_2 at 8 weeks (RT-PCR study), in words: elevated
Rec1_21 (TTCC 165) mRNA; cycle 24
  Relative Abundance Rec1_21, 20 pg F: 0.0
Rec1_21 (TTCC 165) mRNA; cycle 26
  Relative Abundance Rec1_21, 20 pg F: 0.0
Rec1_21 (TTCC 165) mRNA; cycle 28
  Relative Abundance Rec1_21, 20 pg F: 0.0
Rec1_21 (TTCC 165) mRNA; cycle 30
  Relative Abundance Rec1_21, 20 pg F: 0.1
Rec1_21 (TTCC 165) mRNA; cycle 32
  Relative Abundance Rec1_21, 20 pg F: 0.1
Rec1_21 (TTCC 165) mRNA; cycle 34
  Relative Abundance Rec1_21, 20 pg F: 0.3
Rec1_21 (TTCC 165) mRNA; hypercholesterolemic animals receiving lercanidipine
  expression of Rec1_21 at 8 weeks (RT-PCR study), in words: substantially decreased
[2]; cycle 24
  Relative Abundance Rec1_18, 20 pg F: 169.0
[2]; cycle 26
  Relative Abundance Rec1_18, 20 pg F: 5.8
[2]; cycle 28
  Relative Abundance Rec1_18, 20 pg F: 1.0
[2]; cycle 30
  Relative Abundance Rec1_18, 20 pg F: 1.0
[2]; cycle 32
  Relative Abundance Rec1_18, 20 pg F: 1.4
[2]; cycle 34
  Relative Abundance Rec1_18, 20 pg F: 1.1
[2]; [3]
  expression of Rec1_18 at 8 weeks (RT-PCR study), in words: somewhat elevated

## COC(=O)C1=C(C)NC(C)=C(C(=O)OC(C)(C)CN(C)CCC(c2ccccc2)c2ccccc2)[C@@H]1c1cccc([N+](=O)[O-])c1.Cl (single isomer, unassigned) [(R)-lercanidipine]
Rec1_24 (CCGG 232) mRNA; cycle 24
  Relative Abundance Rec1_24, 100 pg D: 0.3
Rec1_24 (CCGG 232) mRNA; cycle 26
  Relative Abundance Rec1_24, 100 pg D: 0.5
Rec1_24 (CCGG 232) mRNA; cycle 28
  Relative Abundance Rec1_24, 100 pg D: 0.7
Rec1_24 (CCGG 232) mRNA; cycle 30
  Relative Abundance Rec1_24, 100 pg D: 0.9
Rec1_24 (CCGG 232) mRNA; cycle 32
  Relative Abundance Rec1_24, 100 pg D: 0.9
Rec1_24 (CCGG 232) mRNA; cycle 34
  Relative Abundance Rec1_24, 100 pg D: 1.1
Rec1_24 (CCGG 232) mRNA; [4]
  expression of Rec1_24 at 8 weeks (RT-PCR study), in words: generally somewhat decreased
Calcium channel
  effectiveness as a ligand to the calcium channel, less effective: 2-3 orders of magnitude
Rec1_22 (TGGG 164) mRNA; cycle 26
  Relative Abundance Rec1_22, 20 pg D: 0.0
Rec1_22 (TGGG 164) mRNA; cycle 28
  Relative Abundance Rec1_22, 20 pg D: 0.0
Rec1_22 (TGGG 164) mRNA; cycle 30
  Relative Abundance Rec1_22, 20 pg D: 0.5
Rec1_22 (TGGG 164) mRNA; cycle 32
  Relative Abundance Rec1_22, 20 pg D: 0.7
Rec1_22 (TGGG 164) mRNA; cycle 34
  Relative Abundance Rec1_22, 20 pg D: 0.8
Rec1_22 (TGGG 164) mRNA; [4]
  expression of Rec1_22 at 8 weeks (RT-PCR study), in words: decreased
